Assay results reported in paper PMC8950244, “New Alpha-Amylase Inhibitory Metabolites from Pericarps of Garcinia mangostana” (Life, 2022).

Biological target: T1, porcine pancreatic α-amylase (Sus scrofa, UniProt P00690)
T1 construct: gene AMY2
T1 sequence (P00690 16-511): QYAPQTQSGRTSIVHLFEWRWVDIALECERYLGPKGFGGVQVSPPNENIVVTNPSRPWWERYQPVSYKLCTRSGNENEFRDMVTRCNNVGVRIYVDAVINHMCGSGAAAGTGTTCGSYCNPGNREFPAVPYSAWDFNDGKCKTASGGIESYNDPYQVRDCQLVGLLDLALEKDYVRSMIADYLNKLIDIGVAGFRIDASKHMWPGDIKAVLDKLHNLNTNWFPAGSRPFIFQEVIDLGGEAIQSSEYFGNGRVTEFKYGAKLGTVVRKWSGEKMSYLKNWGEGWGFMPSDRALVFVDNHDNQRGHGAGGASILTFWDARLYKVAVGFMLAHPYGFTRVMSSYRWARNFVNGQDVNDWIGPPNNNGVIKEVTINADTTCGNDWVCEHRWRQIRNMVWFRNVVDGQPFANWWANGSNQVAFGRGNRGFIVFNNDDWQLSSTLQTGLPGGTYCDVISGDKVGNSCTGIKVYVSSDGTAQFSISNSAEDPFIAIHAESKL
Assay: fluorescence DQ starch hydrolysis assay (EnzChek Ultra Amylase kit)
Type: biochemical

| IC50 [µM] | SMILES |
| --- | --- |
| 16.1 | CC(C)=CCc1c(O)cc2oc3c(/C=C\C(C)(C)O)c(O)c(O)c(CC=C(C)C)c3c(=O)c2c1O [compound 5, mangostanaxanthone VI] |
| 12.2 | O=C(c1cc(O)cc(O)c1O)c1c(O)cc(O)cc1O [compound 6, garcimangophenone A] |
| 9.3 | O=C(c1cc(O)ccc1O)c1c(O)cc(O)cc1O[C@@H]1O[C@H](CO)[C@@H](O)[C@H](O)[C@H]1O [compound 7, garcimangophenone B] |
